Literature values in US8097593B1, “Lipid A and other carbohydrate ligand analogs” (Oncothyreon Inc., priority 2002, dated 2012).

Legend:
[1] = not given; remark: listed apart in the source

## CC(C)(C)C [CC(C)(C)C, 2,2-dimethylpropane]
other
  experimental log P: 3.11

## monophosphoryl Lipid-A
[1]; compared with diphosphoryl Lipid-A (and endotoxin itself)
  immunostimulating activities, in words: comparable
[1]; on a molar basis
  times less potent in eliciting toxic and pyrogenic responses: 1000 times
